PubChem BioAssay (NCI)
“And” between values parts separate entries of the source, which are not always exact repeats. Equal entries are not always repeated.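 1) Cells in 96-well plates. 2) Compound, 48 h, 5 concentrations. 3) Linear interpolation between surrounding doses. 4) Unreached endpoint = highest concentration. The concentration for 50% growth inhibition is given as GI50. TGI: total growth inhibition.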

Columns and labels:
Assay in all cases: NCI tumour cell line growth inhibition, 48 h
[1] = tested on: NCI-H460 lung
[2] = tested on: RPMI-8226 leukemia
[3] = tested on: SK-OV-3 ovarian
[4] = tested on: A498 renal
[5] = tested on: K-562 leukemia
[6] = tested on: UACC-62 melanoma
[7] = tested on: MDA-MB-231 breast
[8] = tested on: RXF 393 renal
[9] = tested on: MALME-3M melanoma
[10] = tested on: MOLT-4 leukemia

| Compound | TGI [1] [µM] | TGI [2] [µM] | TGI [3] [µM] | TGI [4] [µM] | TGI [5] [µM] | TGI [6] [µM] | TGI [7] [µM] | TGI [8] [µM] | TGI [9] [µM] | TGI [10] [µM] | GI50 [1] [µM] | GI50 [2] [µM] | GI50 [3] [µM] | GI50 [4] | GI50 [5] [µM] | GI50 [6] [µM] | GI50 [7] [µM] | GI50 [8] [µM] | GI50 [9] [µM] | GI50 [10] [µM] |
| --- | --- | --- | --- | --- | --- | --- | --- | --- | --- | --- | --- | --- | --- | --- | --- | --- | --- | --- | --- | --- |
| Cc1cc(C)cc(Nc2nnc3n2S(=O)(=O)c2cc(C)c(Cl)cc2S3)c1 | 24.8 | 42 | > 100 | 29.6 | > 100 | 34.9 | 33.2 | 17.2 | 13.7 | > 100 | – | – | – | – | – | – | – | – | – | – |
| COC(=O)[C@H](CNC(=O)/C=C/c1ccc(OC(C)=O)c(OC(C)=O)c1)NC(=O)/C=C/c1ccc(OC(C)=O)c(OC(C)=O)c1 | > 100 | > 100 | > 100 | > 100 | > 100 | > 100 | > 100 | > 100 | > 100 | > 100 | – | – | – | – | – | – | – | – | – | – |
| NC(Cc1ccc(O)cn1)C(=O)NC(C(=O)O)c1ccccc1 (configuration not stated) | > 100 | > 100 | – | > 100 | > 100 | – | > 100 | > 100 | > 100 | > 100 | – | – | – | – | – | – | – | – | – | – |
| COc1ccc2c(c1)CC[C@@H]1[C@@H]2CC[C@]2(C)/C(=N/OCCN3CCCC3)CC[C@@H]12 | 3.08 | 3.65 | – | 9.9 | 2.58 | 3.53 | 8.92 | 4.16 | 3.17 | 4.85 | – | – | – | – | – | – | – | – | – | – |
| Cn1c(N/N=C/c2ccccc2)nc(-c2ccc3c(c2)OCO3)c(C#N)c1=O | > 100 | > 100 | > 100 | > 100 | > 100 | > 100 | > 100 | > 100 | > 100 | > 100 | – | – | – | – | – | – | – | – | – | – |
| CC12NC(=C(C#N)C#N)C(C#N)=C3NC(N)=C(C#N)C(=C31)Oc1ccccc12 (configuration not stated) | > 100 | > 100 | > 100 | > 100 | > 100 | > 100 | > 100 | 6.76 | > 100 | > 31.6 | – | – | – | – | – | – | – | – | – | – |
| COC(=O)C1OC(O[C@H]2CC[C@]3(C)[C@H]4CC=C5[C@@H]6CC(C)(C)CC[C@]6(C(=O)OC)CC[C@@]5(C)[C@]4(C)CC[C@H]3C2(C)C)C(O)C(O)C1O (some centres not stated) | 25.7 | 51.7 | 34.8 | 34.3 | 46.3 | 31 | 19.2 | 18.2 | 38.2 | > 100 | – | – | – | – | – | – | – | – | – | – |
| C1=N[C@]23C(=N[C@H](N=C2NCc2ccco2)[C@]24N=CNC2=N[C@H]3N=C4NCc2ccco2)N1 | > 100 | > 100 | > 100 | > 100 | > 100 | > 100 | > 100 | > 100 | > 100 | > 100 | > 100 | > 100 | > 100 | 5.8 µM | > 100 | > 100 | > 100 | > 100 | > 100 | > 100 |
| O=C(O)c1cc2ccccc2c(Cc2c(O)c(C(=O)O)cc3ccccc23)c1O | > 100 | > 100 | – | > 100 | > 100 | > 100 | > 100 | > 100 | > 100 | > 100 | – | – | – | – | – | – | – | – | – | – |
| CC(NC(=O)Cc1ccc(OP(=O)(OCc2ccc([N+](=O)[O-])o2)N(C)CCCCCl)cc1)c1ccc(OCC2CCCCC2)c(C(N)=O)c1 (configuration not stated) | 13.1 | 2.44 | 11 | 7.39 | 9.23 | 3.28 | 4.37 | 4.74 | 4.42 | 4.38 | – | – | – | – | – | – | – | – | – | – |
| CCCNC1=C2C[C@@H](C)C[C@@H](OC)[C@@H](OC(=O)CCCN)[C@H](C)/C=C(\C)[C@@H](OC(N)=O)[C@H](OC)/C=C\C=C(/C)C(=O)NC(=CC1=O)C2=O | 34.1 | 29.1 | 32.4 | 37.1 | > 20.9 | 29.4 | 36.7 | 33.3 | 28.4 | 19.2 | – | – | – | – | – | – | – | – | – | – |
| CN(C)c1ccc(/C=C/C(=O)c2cc(C(C)(C)C)c(O)c(C(C)(C)C)c2)cc1 | 2.39 | 8.63 | > 100 | > 100 | > 100 | > 100 | 8.69 | 0.511 | > 100 | > 100 | – | – | – | – | – | – | – | – | – | – |
| C=C1C(=O)OC2C1CCC(=C)C1CC(O)C(=C)C12 (configuration not stated) | 36.6 | 23 | > 100 | 38 | 21.4 | 26.6 | 31.6 | 29.9 | 30.1 | 25 | – | – | – | – | – | – | – | – | – | – |
| Cc1cc(OCc2nc(N)nc(N)c2-c2ccc(Cl)c(Cl)c2)ccc1[N+](=O)[O-] | 4.88 | > 78.7 | > 63.3 | 1.3 | > 100 | 1.88 | 7.24 | 21.6 | 29.5 | > 27.5 | – | – | – | – | – | – | – | – | – | – |
| COc1ccc(/C=C2/N=C(N/N=C\C(O)C(O)C(O)CO)NC2=O)cc1 (configuration not stated) | > 100 | > 100 | > 100 | > 100 | > 100 | – | > 100 | > 100 | > 100 | > 100 | – | – | – | > 100 µM and 32.6 µM | 33 | – | – | – | – | – |
| CCOC(=O)Oc1cc2ccsc2c2c1c1ccccc1n2C(=O)OCC | 86.1 | > 100 | 84.9 | 32.6 | > 100 | > 100 | > 100 | 45.8 | > 100 | > 100 | – | – | – | – | – | – | – | – | – | – |
